According to the CheMixHub ionic liquid set:

Test: xn = mol fraction of the nth substance listed

CCCC[N+](CCCC)(CCCC)CCCC.[Cl-] + OCC(O)CO
100 kPa, x1 = 0.333
Conditions | electrical conductivity [S/m] | viscosity [mPa·s]
293.15 K | 0.0303 | 870
303.15 K | 0.0527 | 500
313.15 K | 0.0885 | 298
323.15 K | 0.144 | 184
333.15 K | 0.228 | 117

CC[n+]1ccn(C)c1.[Cl-] + CC[n+]1ccn(C)c1.F[B-](F)(F)F
Conditions | viscosity [mPa·s]
293 K, 101 kPa, x1 = 0.2627 | 92.4

CC[n+]1ccccc1.O=S(=O)([O-])C(F)(F)F + O
101 kPa
Conditions | viscosity [mPa·s]
293.15 K, x1 = 0.067 | 2.47
298.15 K, x1 = 0.067 | 2.16
298.15 K, x1 = 0.498 | 15.04
313.15 K, x1 = 0.689 | 17.4
343.15 K, x1 = 0.689 | 8.42
353.15 K, x1 = 0.893 | 10.74

CCCC[N+](CCCC)(CCCC)CCCC.[Cl-] + CNCCO
101.3 kPa
Conditions | viscosity [mPa·s]
293.15 K, x1 = 0.09104 | 29.5
298.15 K, x1 = 0.09104 | 22.9
298.15 K, x1 = 0.111 | 26.1
303.15 K, x1 = 0.1441 | 27
308.15 K, x1 = 0.1441 | 21.1
313.15 K, x1 = 0.1441 | 17.1
318.15 K, x1 = 0.09104 | 11.4
328.15 K, x1 = 0.111 | 7.84

CCCC[NH3+].O=[N+]([O-])[O-] + CC[NH3+].O=[N+]([O-])[O-]
electrical conductivity [S/m], 101 kPa, frequency 0.00293 MHz
Conditions | 303.15 K | 308.15 K | 323.15 K
x2 = 0.25 | – | 0.88 | 1.38
x2 = 0.75 | 1.68 | – | –

101 kPa
Conditions | viscosity [mPa·s]
303.15 K, x2 = 0.75 | 42.1
308.15 K, x2 = 0.25 | 56.1
323.15 K, x2 = 0.25 | 33.7
333.15 K, x2 = 0.25 | 25.2
338.15 K, x2 = 0.25 | 22
338.15 K, x2 = 0.75 | 15.5
343.15 K, x2 = 0.25 | 19.4
353.15 K, x2 = 0.25 | 15.4
353.15 K, x2 = 0.5 | 13.3

CC[n+]1ccn(C)c1C.F[B-](F)(F)F + CC#N
viscosity [mPa·s], 101.3 kPa
Conditions | 293.15 K | 298.15 K | 303.15 K | 308.15 K | 313.15 K | 318.15 K | 323.15 K | 328.15 K | 333.15 K
x1 = 0.02106 | 0.518 | 0.505 | 0.476 | 0.456 | 0.442 | 0.428 | 0.414 | 0.401 | 0.389
x1 = 0.04617 | 0.648 | 0.618 | 0.59 | 0.566 | 0.543 | 0.52 | 0.501 | 0.483 | 0.465
x1 = 0.07663 | 0.846 | 0.808 | 0.768 | 0.732 | 0.698 | 0.667 | 0.636 | 0.608 | 0.583
x1 = 0.1143 | 1.116 | 1.051 | 0.995 | 0.943 | 0.893 | 0.85 | 0.809 | 0.769 | 0.733
x1 = 0.1622 | 1.68 | 1.58 | 1.48 | 1.39 | 1.31 | 1.24 | 1.17 | 1.105 | 1.049
x1 = 0.2251 | 2.63 | 2.44 | 2.26 | 2.11 | 1.97 | 1.84 | 1.73 | 1.62 | 1.53
x1 = 0.3112 | 4.25 | 3.81 | 3.48 | 3.2 | 2.94 | 2.71 | 2.51 | 2.33 | 2.16
x1 = 0.4365 | 8.05 | 7.11 | 6.37 | 5.75 | 5.18 | 4.7 | 4.27 | 3.91 | 3.57

C[N+]1(CCOCCOCC[N+]2(C)CCCC2)CCCC1.O=S(=O)([N-]S(=O)(=O)C(F)(F)F)C(F)(F)F.O=S(=O)([N-]S(=O)(=O)C(F)(F)F)C(F)(F)F + CC[n+]1ccn(C)c1.O=S(=O)([N-]S(=O)(=O)C(F)(F)F)C(F)(F)F + O=S(=O)([N-]S(=O)(=O)C(F)(F)F)C(F)(F)F.[Li+]
100 kPa, x1 = 0.2689, x2 = 0.5819
Conditions | electrical conductivity [S/m]
298 K | 0.282
303 K | 0.341
313 K | 0.451
323 K | 0.63
333 K | 0.82
343 K | 1.02

CS(C)=O + COCCCC[n+]1ccn(C)c1.NCC(=O)[O-]
Conditions | viscosity [mPa·s]
308.15 K, 100 kPa, x2 = 0 | 1.65

CC[n+]1ccn(C)c1.[Cl-] + NCCNCCN + OCCO
viscosity [mPa·s], 100 kPa
Conditions | 293 K | 303 K | 313 K | 323 K | 333 K | 343 K | 353 K
x2 = 0.25, x3 = 0.25 | 64.8 | 43.2 | 29.5 | 20.6 | 14.7 | 10.7 | 8
x2 = 0.333, x3 = 0.333 | 144 | 91.9 | 60.4 | 40.8 | 28.2 | 19.9 | 14.3
x2 = 0.4, x3 = 0.2 | 106 | 68.1 | 44.7 | 30.2 | 20.9 | 14.7 | 10.6
x2 = 0.429, x3 = 0.143 | 103 | 66.5 | 44.2 | 30.1 | 21 | 15 | 10.9
x2 = 0.5, x3 = 0.25 | 124 | 80.8 | 53.9 | 36.9 | 25.8 | 18.5 | 13.4
